We go through twelve compounds from patent publication US11319316B2, “Compounds that induce degradation of anti-apoptotic Bcl-2 family proteins and the uses thereof” (BioVentures, LLC, priority 2016, dated 2022).

Common to all, as to format: cell-based
One experiment concerns Normal WI38 (NSC). Briefly: Viability of normal WI38 cells (NSC), 72 h, PI staining and flow cytometry. To be noted: Homo sapiens, WI-38, viable (PI-) cells as percentage of vehicle control. The procedure: (§1) Normal WI38 (NSC) and IR-induced senescent WI38 cells (IR-SC) were incubated with vehicle or increasing concentrations of compounds of Formula (I) or Formula (II) for 72 hours. The cells were digested with 0.25% trypsin and 1 mM EDTA, and harvested in PBS containing 2% FBS. After incubation with propidium iodide (PI, 100 ng/ml) in PBS at room temperature for 1 minute, cells were centrifuged at 1,200 rpm for 6 minutes to remove PI and then resuspended in PBS containing 2% FBS for analysis using a flow cytometer. Viable cells (PI-cells) were analyzed by flow cytometry at a constant flow rate to count the number of cells and calculated as a percentage of control cells treated with vehicle. Table 1 depicts the EC50 values of the compounds of Formula (I) and compounds of Formula (II) against normal WI38 and IR-induced senescent WI38.

In experiment [1] the test system is IR-induced senescent WI38 cells (IR-SC). Briefly: Viability of IR-induced senescent WI38 cells (IR-SC), 72 h, PI staining and flow cytometry. To be noted: for EC50: Homo sapiens, WI-38, IR-induced senescent WI38 cells, 72 hours, viable (PI-) cells as percentage of vehicle control; for Ratio NSC/SC: ratio of WI38 EC50 in NSC to EC50 in IR-SC; for Selective inhibition of IR-SC WI38 cells versus normal WI38 cells: FIG. 2A, FIG. 2B, increasing concentrations. The procedure: as §1

A further experiment has as its system RS4; 11 cancer cells. Put plainly: Cancer cell viability by MTS, 72 h, RS4;11. The following applies: Homo sapiens, RS4;11 cells. The procedure: (§2) RS4; 11 and NCI-H146 cancer cells were incubated with vehicle or increasing concentrations of compounds of Formula (I) and Formula (II). At 72 hours post-treatment cell viability was measured by MTS and EC50 was calculated as a percentage of control cells treated with vehicle. Table 1 depicts the EC50 values of compounds of Formula (I) and Formula (II) against RS4; 11 and NCI-H146.

In a further experiment the test system is NCI-H146 cancer cells. Briefly: Cancer cell viability by MTS, 72 h, NCI-H146. The following applies: Homo sapiens. The procedure:
as §2

Some results are limits rather than exact numbers.

For `CC1(C)CCC(CN2CCN(c3ccc(C(=O)NS(=O)(=O)c4ccc(NCC5CCOCC5)c([N+](=O)[O-])c4)c(Oc4cnc5[nH]ccc5c4)c3)CC2)=C(c2ccc(Cl)cc2)C1` [ABT-199, venetoclax, reference compound], the EC50 (in the experiment on Normal WI38 (NSC); in experiment [1]) was more than 10 µM each time.

For the compound `CC1(C)CCC(c2ccc(Cl)cc2)=C(CN2CCN(c3ccc(C(=O)NS(=O)(=O)c4ccc(N[C@H](CCN5CCOCC5)CSc5ccccc5)c(S(=O)(=O)C(F)(F)F)c4)cc3)CC2)C1` [ABT-263, navitoclax, reference compound], the concentration for a half-maximal effect (EC50) with Normal WI38 (NSC) stood at 12.6 µM; in experiment [1], 0.61 µM; in the experiment with RS4; 11 cancer cells, 0.016 µM; with NCI-H146 cancer cells it was 0.0275 µM. Besides, the “Ratio NSC/SC” value in experiment [1] came out at 20.6.

Take `O=C1CCC(N2C(=O)c3cccc(NCCOCCOCCOCc4cn(CCCC(=O)N5CCN(CC#Cc6ccc(OCCCc7sc(N8CCc9cccc(C(=O)Nc%10nc%11ccccc%11s%10)c9C8)nc7C(=O)O)c(F)c6)CC5)nn4)c3C2=O)C(=O)N1` (stereo not drawn) [XZ-12906, 2-(8-(benzo[d]thiazol-2-ylcarbamoyl)-3,4-dihydroisoquinolin-2(1H)-yl)-5-(3-(4-(3-(4-(4-(4-((2-(2-(2-(2-(2,6-dioxopiperidin-3-yl)-1,3-dioxoisoindolin-4-ylamino)ethoxy)ethoxy)ethoxy)methyl)-1H-1,2,3-triazol-1-yl)butanoyl)piperazin-1-yl)prop-1-ynyl)-2-fluorophenoxy)propyl)thiazole-4-carboxylic acid]: the “Selective inhibition of IR-SC WI38 cells versus normal WI38 cells” value in experiment [1] was “selectively inhibit IR-SC WI38 cells but not normal WI 38 cells in a dose dependent manner”.

In the experiment on Normal WI38 (NSC), `CC(C)(C)OC(=O)N1CCN(CC#Cc2ccc(OCCCc3sc(N4CCc5cccc(C(=O)Nc6nc7ccccc7s6)c5C4)nc3C(=O)O)c(F)c2)CC1` [XZ-13861, 2-(8-(benzo[d]thiazol-2-ylcarbamoyl)-3,4-dihydroisoquinolin-2(1H)-yl)-5-(3-(4-(3-(4-(tert-butoxycarbonyl)piperazin-1-yl)prop-1-ynyl)-2-fluorophenoxy)propyl)thiazole-4-carboxylic acid] returned a concentration for a half-maximal effect (EC50) of 32.8 µM. In experiment [1], the “Selective inhibition of IR-SC WI38 cells versus normal WI38 cells” value is “selectively inhibit IR-SC WI38 cells but not normal WI 38 cells in a dose dependent manner”, the EC50 was found to be 3.12 µM and the “Ratio NSC/SC” value amounted to 10.51.

With `O=C1CCC(N2C(=O)c3cccc(NCCOCCOCc4cn(CCCC(=O)N5CCN(CC#Cc6ccc(OCCCc7sc(N8CCc9cccc(C(=O)Nc%10nc%11ccccc%11s%10)c9C8)nc7C(=O)O)c(F)c6)CC5)nn4)c3C2=O)C(=O)N1` (stereo not drawn) [XZ-14424, 2-(8-(benzo[d]thiazol-2-ylcarbamoyl)-3,4-dihydroisoquinolin-2(1H)-yl)-5-(3-(4-(3-(4-(4-(4-((2-(2-((2-(2,6-dioxopiperidin-3-yl)-1,3-dioxoisoindolin-4-yl)amino)ethoxy)ethoxy)methyl)-1H-1,2,3-triazol-1-yl)butanoyl)piperazin-1-yl)prop-1-yn-1-yl)-2-fluorophenoxy)propyl)thiazole-4-carboxylic acid], the EC50 with Normal WI38 (NSC) came to 1.6 µM. In experiment [1], the midpoint of the response, the EC50, lay at 1.4 µM and the “Ratio NSC/SC” value stood at 1.2.

For `Cc1ncsc1-c1ccc(CNC(=O)[C@@H]2C[C@@H](O)CN2C(=O)[C@@H](NC(=O)COCCOCCOCc2cn(CCCC(=O)N3CCN(CC#Cc4ccc(OCCCc5sc(N6CCc7cccc(C(=O)Nc8nc9ccccc9s8)c7C6)nc5C(=O)O)c(F)c4)CC3)nn2)C(C)(C)C)cc1` [XZ-14455, 2-(8-(benzo[d]thiazol-2-ylcarbamoyl)-3,4-dihydroisoquinolin-2(1H)-yl)-5-(3-(2-fluoro-4-(3-(4-(4-(4-((S)-12-((2S,4R)-4-hydroxy-2-((4-(4-methylthiazol-5-yl)benzyl)carbamoyl)pyrrolidine-1-carbonyl)-13,13-dimethyl-10-oxo-2,5,8-trioxa-11-azatetradecyl)-1H-1,2,3-triazol-1-yl)butanoyl)piperazin-1-yl)-prop-1-yn-1-yl)phenoxy)propyl)thiazole-4-carboxylic acid], the EC50 is 5 µM in the experiment with Normal WI38 (NSC), 1.47 µM in experiment [1], more than 2 µM in the experiment with RS4; 11 cancer cells and more than 2 µM with NCI-H146 cancer cells. For the same compound, in experiment [1], the “Ratio NSC/SC” value was determined as 3.40.

As to `CC1(C)CCC(c2ccc(Cl)cc2)=C(CN2CCN(c3ccc(C(=O)NS(=O)(=O)c4ccc(N[C@H](CCN5CCN(C(=O)NCCOCCOCCNc6cccc7c6C(=O)N(C6CCC(=O)NC6=O)C7=O)CC5)CSc5ccccc5)c(S(=O)(=O)C(F)(F)F)c4)cc3)CC2)C1` (stereo partly drawn) [XZ-14509, 4-((R)-3-(4-(N-(4-(4-((2-(4-chlorophenyl)-5,5-dimethylcyclohex-1-enyl)methyl)piperazin-1-yl)benzoyl)sulfamoyl)-2-(trifluoromethylsulfonyl)phenylamino)-4-(phenylthio)butyl)-N-(2-(2-(2-(2-(2,6-dioxopiperidin-3-yl)-1,3-dioxoisoindolin-4-ylamino)ethoxy)ethoxy)ethyl)piperazine-1-carboxamide], the EC50 was more than 10 µM in the experiment on Normal WI38 (NSC), 0.226 µM in experiment [1], 0.09 µM in the experiment with RS4; 11 cancer cells and 0.065 µM in the experiment with NCI-H146 cancer cells. Besides, in experiment [1], the “Ratio NSC/SC” value was more than 44.22.

`CC1(C)CCC(c2ccc(Cl)cc2)=C(CN2CCN(c3ccc(C(=O)NS(=O)(=O)c4ccc(N[C@H](CCN5CCN(C(=O)COCCOCCOCCNc6cccc7c6C(=O)N(C6CCC(=O)NC6=O)C7=O)CC5)CSc5ccccc5)c(S(=O)(=O)C(F)(F)F)c4)cc3)CC2)C1` (stereo partly drawn) [XZ-14510]: the concentration for a half-maximal effect (EC50) was more than 10 µM in the experiment on Normal WI38 (NSC), 0.177 µM in experiment [1], 0.22 µM in the experiment with RS4; 11 cancer cells and 0.112 µM with NCI-H146 cancer cells. The “Ratio NSC/SC” value in experiment [1] is more than 56.

As to `CC1(C)CCC(c2ccc(Cl)cc2)=C(CN2CCN(c3ccc(C(=O)NS(=O)(=O)c4ccc(N[C@H](CCN5CCN(C(=O)COCCOCCNc6cccc7c6C(=O)N(C6CCC(=O)NC6=O)C7=O)CC5)CSc5ccccc5)c(S(=O)(=O)C(F)(F)F)c4)cc3)CC2)C1` (stereo partly drawn) [XZ-14515], the EC50 in the experiment with Normal WI38 (NSC) was more than 10 µM; in experiment [1] it was 0.158 µM; in the experiment on RS4; 11 cancer cells, 0.173 µM; in the experiment with NCI-H146 cancer cells it was 0.0792 µM. The “Ratio NSC/SC” value in experiment [1] is more than 63.27.

Regarding `CC1(C)CCC(c2ccc(Cl)cc2)=C(CN2CCN(c3ccc(C(=O)NS(=O)(=O)c4ccc(N[C@H](CCN5CCN(C(=S)NCCOCCOCCNc6cccc7c6C(=O)N(C6CCC(=O)NC6=O)C7=O)CC5)CSc5ccccc5)c(S(=O)(=O)C(F)(F)F)c4)cc3)CC2)C1` (stereo partly drawn) [XZ-14516, 4-(4-((2-(4-chlorophenyl)-5,5-dimethylcyclohex-1-enyl)methyl)piperazin-1-yl)-N-(4-((2R)-4-(4-(2-(2-(2-(2-(2,6-dioxopiperidin-3-yl)-1,3-dioxoisoindolin-4-ylamino)ethoxy)ethoxy)ethylcarbamothioyl)piperazin-1-yl)-1-(phenylthio)butan-2-ylamino)-3-(trifluoromethylsulfonyl)phenylsulfonyl)benzamide], the EC50 in the experiment with Normal WI38 (NSC) was more than 10 µM; in experiment [1] it was 0.092 µM; in the experiment on RS4; 11 cancer cells, 1.09 µM; in the experiment on NCI-H146 cancer cells, 0.517 µM. Further, the “Ratio NSC/SC” value in experiment [1] was more than 109.

Turning to `CC1(C)CCC(CN2CCN(c3ccc(C(=O)NS(=O)(=O)c4ccc(NCC5CCN(C(=O)COCCOCCOCCNc6cccc7c6C(=O)N(C6CCC(=O)NC6=O)C7=O)CC5)c([N+](=O)[O-])c4)c(Oc4cnc5[nH]ccc5c4)c3)CC2)=C(c2ccc(Cl)cc2)C1` (stereo not drawn) [XZ-14522], the EC50 in the experiment with Normal WI38 (NSC) was more than 10 µM; in experiment [1] it was more than 10 µM; in the experiment with RS4; 11 cancer cells, 0.047 µM; with NCI-H146 cancer cells, 1.1 µM.

Regarding `CC1(C)CCC(CN2CCN(c3ccc(C(=O)NS(=O)(=O)c4ccc(NCC5CCN(C(=O)CCCn6cc(COCCOCCOCCNc7cccc8c7C(=O)N(C7CCC(=O)NC7=O)C8=O)nn6)CC5)c([N+](=O)[O-])c4)c(Oc4cnc5[nH]ccc5c4)c3)CC2)=C(c2ccc(Cl)cc2)C1` (stereo not drawn) [XZ-14523, 2-((1H-pyrrolo[2,3-b]pyridin-5-yl)oxy)-4-(4-((4′-chloro-5,5-dimethyl-3,4,5,6-tetrahydro-[1,1′-biphenyl]-2-yl)methyl)piperazin-1-yl)-N-((4-(((1-(4-(4-((2-(2-(2-((2-(2,6-dioxopiperidin-3-yl)-1,3-dioxoisoindolin-4-yl)amino)ethoxy)ethoxy)ethoxy)methyl)-1H-1,2,3-triazol-1-yl)butanoyl)piperidin-4-yl)methyl)amino)-3-nitrophenyl)sulfonyl)benzamide], the EC50 is more than 10 µM in the experiment on Normal WI38 (NSC), more than 10 µM in experiment [1], 0.161 µM in the experiment with RS4; 11 cancer cells and 1.26 µM in the experiment with NCI-H146 cancer cells.
